{"source": "patent US20230172936A1", "about": "“VCP/p97 INHIBITOR FOR THE TREATMENT OF CANCER” (Cleave Therapeutics, Inc., priority 2020, published 2023)", "key": {"[1]": {"assay": "Human plasma pharmacokinetics (Phase I dose escalation)", "excerpt": "BID dosing may be also tested depending on initial PK assessments. Participants will be evaluated regularly for safety assessments including physical examinations and laboratory testing. Bone marrow aspirates and/or biopsies will be performed at regular intervals, including for assessment of tumor response as per 2017 European LeukemiaNet (ELN) response criteria for AML or 2006 revised International Working Group (IWG) response criteria for MDS. Peripheral blood samples will be collected in Cycle 1 for intensive PK testing and PD biomarker assessments. Additional intensive PK testing will be collected for any participants undergoing intra-patient dose escalation.\nA cycle consists of 28 days and the first cycle will comprise the DLT observation period.\nFollowing the protocol of Example 7, additional patients were treated in the dose escalation study."}, "MLL-AF9 cells": {"tested_on": "MLL-AF9 cells", "assay": "MLL-AF9 allogenic disseminated mouse model of AML", "format": "in vivo, mice", "conditions": "90 mg/kg oral gavage, 4 days on/3 days off, vs vehicle", "procedure": "Compound 1 was tested in the MLL-AF9 allogenic disseminated mouse model of AML. 200,000 MLL-AF9-cells were injected via tail vein into 6-week-old C57BL/6 male mice (The Jackson Laboratory). Starting at day 8 after cell injection, mice were treated with Compound 1 delivered through oral gavage (90 mg/kg) or vehicle (0.5% methylcellulose) on a dosing schedule of 4 days “on” (administered on each of 4 days sequentially) followed by 3 days “off” (no administration on each of 3 sequential days) for 2 full cycles (two weeks total of 4 on/3 off).\nThe proportion of MLL-AF9 cells in peripheral blood (n=6 mice per group) was measured at 12 days post-injection of MLL-AF9 cells using flow cytometry. Murine peripheral blood, bone marrow and spleen were collected from each organ, washed with PBS-0.1% BSA-2 mM EDTA and lysed for 10 minutes with red blood cell lysis buffer (Sigma). After two washing steps with PBS-0.1% BSA-2 mM EDTA, bone marrow cells were stained for 30 minutes at 4° C. with corresponding cell surface antibodies for CD45 (CD45 […], Invitrogen). Cells were then washed twice with PBS-0.1% BSA-2 mM EDTA before analysis of 10,000 cells gated for CD45+(high) with BD FACSCanto II (BD Biosciences) to isolate the AML blast population. Statistical significance determined using Mann-Whitney test in comparison with vehicle. Error bars represent mean±SEM. […]"}, "[2]": {"tested_on": "human A549 lung adenocarcinoma xenograft tumors", "assay": "Tumor growth of A549 xenograft tumors", "format": "in vivo, mice", "conditions": "18 day period", "excerpt": "(§1) Group 1 received PO 4-days on, 3-days off doses (QD4/3 off) of vehicle."}, "[3]": {"excerpt": "as §1"}}, "note": "Values joined by “and” are separate entries in the source; they are usually repeats but may differ in a detail not shown here. Identical values can stand only once. Like-named read-outs stand apart in the source and are kept apart here."}
{"molecule": "Cc1cc2c(C(N)=O)cccc2n1-c1nc2c(c(NCc3ccccc3)n1)CCCN2", "note": "[Compound 1, 1-(4-(Benzylamino)-5,6,7,8-tetrahydropyrido[2,3-d]pyrimidin-2-yl)-2-methyl-1H-indole-4-carboxamide]", "values": [{"measurement": "AR", "setting": "[1]; 25 mg QD, Day 4", "value": 0.914}, {"measurement": "accumulation", "setting": "[1]; 25 mg QD, between days 1 and 4", "value": "No accumulation"}, {"measurement": "exposure with concomitant proton pump inhibitors (PPi)", "setting": "[1]; 100 mg QD, two of three subjects", "value": "lower exposure"}, {"measurement": "exposure level increases between the doses", "setting": "[1]; 25, 50, 100 and 175 mg QD, 9 patients", "value": "proportional and linear"}, {"measurement": "plasma exposure compared with CB-5083", "setting": "[1]; Compound 1 25 mg QD vs CB-5083 40 mg QD", "value": "significantly higher plasma exposure"}, {"measurement": "exposures compared with CB-5083", "setting": "[1]; Compound 1 25 mg QD vs CB-5083 at greater than 200 mg, FIG. 7", "value": "greater than dosing CB-5083 at greater than 200 mg"}, {"measurement": "exposures compared with CB-5083", "setting": "[1]; dose escalation 25-175 mg QD, FIG. 8", "value": "greater than dosing CB-5083"}, {"measurement": "Tmax", "setting": "[1]; human, in vivo, 25 mg", "value": 2, "unit": "h"}, {"measurement": "tmax", "setting": "[1]; human, in vivo, 25 mg", "value": 2, "unit": "h"}, {"measurement": "AUC(0-inf)", "setting": "[1]; human, in vivo, 25 mg, AUC0-inf", "value": "1.03 µM·h and 425 ng·h/mL"}, {"measurement": "AUC(0-t)", "setting": "[1]; human, in vivo, 25 mg, AUC0-t", "value": "0.88 µM·h and 364 ng·h/mL"}, {"measurement": "Cmax", "setting": "[1]; human, in vivo, 25 mg, Cmax", "value": "198 nM and 81.7 ng/mL"}, {"measurement": "half-life", "setting": "[1]; human, in vivo, 25 mg, half-life", "value": "3 to 4", "unit": "h"}, {"measurement": "half-life", "setting": "[1]; human, in vivo, 25 mg, t1/2", "value": 2.61, "unit": "h"}, {"measurement": "overall survival", "setting": "MLL-AF9 cells; 2 cycles", "value": "improved the overall survival"}, {"measurement": "circulating blast counts (MLL-AF9 cells in peripheral blood)", "setting": "MLL-AF9 cells; 12 days post-injection", "value": "reduced circulating blast counts"}, {"measurement": "TGI", "setting": "[2]; 100 mg/kg QD4/3 off", "value": 61, "unit": "%"}, {"measurement": "tumor growth inhibition (TGI)", "setting": "[2]; 150 mg/kg BIW, PO", "value": 20, "unit": "%"}, {"measurement": "TGI", "setting": "[2]; 225 mg/kg once weekly (1/W)", "value": 31, "unit": "%"}, {"measurement": "drug-related deaths", "setting": "[3]; 100 mg/kg QD4/3 off", "value": "a single drug-related death"}, {"measurement": "tolerability of dosing regimen", "setting": "[3]; 100 mg/kg QD4/3 off", "value": "generally tolerated"}, {"measurement": "mean body weight loss", "setting": "[3]; 100 mg/kg QD4/3 off, day 2", "value": "−7.0", "unit": "%"}, {"measurement": "deaths", "setting": "[3]; 150 mg/kg BIW cohort", "value": "No deaths"}, {"measurement": "body weight loss", "setting": "[3]; 150 mg/kg BIW, day 2", "value": "−1.5", "unit": "%"}, {"measurement": "body weight loss", "setting": "[3]; 150 mg/kg BIW, day 3", "value": "−3.9", "unit": "%"}, {"measurement": "drug related deaths", "setting": "[3]; 225 mg/kg 1/W cohort", "value": "A single drug related death"}, {"measurement": "body weight loss", "setting": "[3]; 225 mg/kg weekly, day 4", "value": "−8.1", "unit": "%"}]}
